Among the data in ChEMBL document CHEMBL1629589, “Activity of the oral neuraminidase inhibitor A-322278 against the oseltamivir-resistant H274Y (A/H1N1) influenza virus mutant in mice” (2009) are Activity, PFU and Time values, retold here.

Assay type in all cases: functional
The test system of assay [1] is Influenza A virus. The assay can be described thus: Antiviral activity against recombinant Influenza A virus (A/WSN/1933(H1N1)) H274Y mutant infected in BALB/c mouse assessed as reduction in body weight at 1 mg/kg, po administered 4 hrs before infection for 5 days measured on day 5 (reference value: 22.2 %). More on the design: scale not given: the % may be the effect or the level left.

Assay [2] relates to Influenza A virus. The assay can be described thus: Antiviral activity against recombinant Influenza A virus (A/WSN/1933(H1N1)) H274Y mutant infected in BALB/c mouse assessed as lung viral titer at 1 mg/kg, po administered 48 hrs postinfection for 5 days measured on day 4 (reference value: 1 x 10^6 +/- 0.3 x 10^6 PFU).
For assay [3], the system named is Influenza A virus. Nature of the assay: Antiviral activity against recombinant Influenza A virus (A/WSN/1933(H1N1)) H274Y mutant infected in BALB/c mouse assessed as mortality rate at 1 mg/kg, po administered 48 hrs postinfection for 5 days measured on day 5 (reference value: 100 %).
Assay [4] relates to Influenza A virus. Nature of the assay: Antiviral activity against recombinant Influenza A virus (A/WSN/1933(H1N1)) H274Y mutant infected in BALB/c mouse assessed as time to death at 10 mg/kg, po administered 48 hrs postinfection for 5 days (reference value: 5.1 days).
For assay [5], the system named is Influenza A virus. Nature of the assay: Antiviral activity against recombinant Influenza A virus (A/WSN/1933(H1N1)) H274Y mutant infected in BALB/c mouse assessed as time to death at 1 mg/kg, po administered 48 hrs postinfection for 5 days (reference value: 5.1 days).
Assay [6] deals with Influenza A virus. The assay can be described thus: Antiviral activity against recombinant Influenza A virus (A/WSN/1933(H1N1)) H274Y mutant infected in BALB/c mouse assessed as reduction in body weight at 10 mg/kg, po administered 48 hrs postinfection for 5 days measured on day 5 (reference value: 22.2 %). More on the design: scale not given: the % may be the effect or the level left.

Assay [7] has as its system Influenza A virus. The assay can be described thus: Antiviral activity against recombinant Influenza A virus (A/WSN/1933(H1N1)) H274Y mutant infected in BALB/c mouse assessed as time to death at 1 mg/kg, po administered 4 hrs before infection on day 5 (reference value: 5.1 days).
Assay [8] concerns Influenza A virus. Nature of the assay: Antiviral activity against recombinant Influenza A virus (A/WSN/1933(H1N1)) H274Y mutant infected in BALB/c mouse assessed as reduction in body weight at 1 mg/kg, po administered 48 hrs postinfection for 5 days measured on day 5 (reference value: 22.2 %). More on the design: scale not given: the % may be the effect or the level left.
The test system of assay [9] is Influenza A virus. The assay can be described thus: Antiviral activity against recombinant Influenza A virus (A/WSN/1933(H1N1)) H274Y mutant infected in BALB/c mouse assessed as mortality rate at 1 mg/kg, po administered 4 hrs before infection for 5 days measured on day 5 (reference value: 100 %).
In assay [10] the test system is Influenza A virus. The assay can be described thus: Antiviral activity against recombinant Influenza A virus (A/WSN/1933(H1N1)) H274Y mutant infected in BALB/c mouse assessed as lung viral titer at 10 mg/kg, po administered 48 hrs postinfection for 5 days measured on day 4 (reference value: 1 x 10^6 +/- 0.3 x 10^6 PFU).
Assay [11] has as its system Influenza A virus. The assay can be described thus: Antiviral activity against recombinant Influenza A virus (A/WSN/1933(H1N1)) H274Y mutant infected in BALB/c mouse assessed as lung viral titer at 1 mg/kg, po administered 4 hrs before infection for 5 days measured on day 4 (reference value: 1 x 10^6 +/- 0.3 x 10^6 PFU).
In assay [12] the test system is Influenza A virus. Nature of the assay: Antiviral activity against recombinant Influenza A virus (A/WSN/1933(H1N1)) H274Y mutant infected in BALB/c mouse assessed as mortality rate at 10 mg/kg, po administered 48 hrs postinfection for 5 days measured on day 5 (reference value: 100 %).
The subject of assay [13] is Influenza A virus. Nature of the assay: Antiviral activity against recombinant Influenza A virus (A/WSN/1933(H1N1)) H274Y mutant infected in BALB/c mouse assessed as mortality rate at 10 mg/kg, po administered 4 hrs before infection for 5 days measured on day 5 (reference value: 100 %).
For assay [14], the system named is Influenza A virus. Nature of the assay: Antiviral activity against recombinant Influenza A virus (A/WSN/1933(H1N1)) H274Y mutant infected in BALB/c mouse assessed as reduction in body weight at 10 mg/kg, po administered 4 hrs before infection for 5 days measured on day 5 (reference value: 22.2 %). More on the design: scale not given: the % may be the effect or the level left.

Assay [15] concerns Influenza A virus. The assay can be described thus: Antiviral activity against recombinant Influenza A virus (A/WSN/1933(H1N1)) H274Y mutant infected in BALB/c mouse assessed as lung viral titer at 10 mg/kg, po administered 4 hrs before infection for 5 days measured on day 4 (reference value: 1 x 10^6 +/- 0.3 x 10^6 PFU).

Consider `CCOC(=O)C1=C[C@@H](OC(CC)CC)[C@H](NC(C)=O)[C@@H](N)C1` [OSELTAMIVIR], for which the Activity in [1] stood at 23.7%; in assay [3], 100%; in assay [6] it was 21.5%; in [8], 20.1%; in assay [9], 100%; in [12], 75%. For the same compound, the PFU stood at 230000 in assay [2], 13000 in [10] and 190000 in [11]. Besides, the Time was 5.2 days in [4], 5 days in assay [5] and 5.1 days in [7].
With `C/C=C\[C@@H]1C[C@H](C(=O)OC(C)C)N[C@H]1[C@@H](NC(C)=O)[C@](C)(CCC)OC`, the Activity in [1] is listed as 10.8%; in [3], 75%; in assay [6], 15.6%; in assay [13], 0%; in assay [14], 5%; in assay [8], 19%. The Activity came out at 0% in [9] and 25% in assay [12]. Further, the PFU in [2] is 83000; in assay [10] it was 130000; in assay [11], 69000; in [15] it was 35000. Further, the Time was 5.4 days in assay [4] and 5 days in assay [7].
